Data taken from article PMC11861906, “Structural basis for lipid-mediated activation of G protein-coupled receptor GPR55” (Nature Communications, 2025).

Experiments:
[1] = target: wt GPR55 (Gα13 mutant L374I) (Homo sapiens, UniProt Q9Y2T6); assay: BRET² G protein dissociation assay, wt GPR55 with Gα13-L374I; format: cell-based; conditions: for BRET2 response, Mean (plotted, Fig. S4): GPR55-wt-G13-L374I
Description: (§1) Next, we used a mutagenesis approach to further explore the Gα13 selectivity of GPR55. The striking difference in the sequence between the two G protein subtypes guided the design of four Gα13 mutants that are in close contact with GPR55 by replacing the residues with the respective Gα12 amino acid (L374^-4I, Q373^-5D, H368^-10Q, R331D). The mutants were tested individually for their ability to be activated by GPR55 using the same G protein dissociation assay. […] The single Gα13-mutants affected the potency of LPI and ML184 only to a minor extend compared to wt Gα13 (Supplementary Table S3).
(§2) G protein dissociation assays were performed according to the original protocols of the TRUPATH BRET² assay[47],[87] but with subtle modifications as previously described[61],[88],[89]. All reagents and cells were obtained from Thermo Fisher Scientific unless indicated otherwise. The coding sequences for the G protein biosensors[47] (Gα12-Rluc8, Gα13-Rluc8, wt Gβ3, and Gγ9-GFP), the wt GPR55, the construct used for cryo-EM (with GFP bearing a G67A mutation to disrupt fluorescence properties[48] for BRET² assays), GPR55 binding pocket mutants (G152^4.56F, G152^4.56W, N171^ECL2Q, N171^ECL2A, T176^5.33A, R253^6.62A), and the wt TBXA2R were codon-optimized for Homo sapiens, gene-synthesized, and sub-cloned into pcDNA^TM3.1(+) between NheI and HindIII restriction sites by GeneArt (Thermo Fisher Scientific). […] Freshly grown cells were washed with Dulbecco’s Balanced Salt Solution (DPBS, cat. #14200075) and detached using trypsin-ethylenediaminetetraacetic acid (trypsin-EDTA) (cat. #25300-062). Then, the cells were reconstituted to 500,000 cells per mL with fresh medium, and 1,000,000 cells were seeded into each well of a 6-well plate. After 3 h incubation at 37 °C and 5% CO2, adherent cells were transfected with 600 ng DNA (1:1:1:1 ratio of plasmid DNA for GPR55, wt Gβ3, Gγ9-GFP, and Gα12-Rluc8 or Gα13-Rluc8). Plasmid DNA was mixed with 1.5 µL Lipofectamine^TM 2000 (cat. #11668027) in Opti-MEM^TM medium (cat. #31985062) and incubated for 20 min. Then, the mixture was added to each well of the 6-well plate following 24 h incubation at 37 °C and 5% CO2. Transfected cells were washed with DPBS, detached using EDTA (Versene, cat. #15040066), and reconstituted into fresh medium at 500,000 cells mL^−1. From this suspension, 50,000 cells were seeded into each well of a white-bottom 96-well plate (Nunc^TM MicroWell^TM 96 wells, cat. #136101) following overnight incubation at 37 °C and 5% CO2. Then, the adherent cells were washed with assay medium [Hank’s balanced salt solution (HBSS, cat. #14065056) plus 20 mM HEPES pH 7.4 (cat. #15630056)] and finally reconstituted into 50 µL of the same medium. […] Methoxy e-Coelenterazine was used as luciferase substrate (Prolume Purple, NanoLight Technology, cat. #369), reconstituted at 1 mM in methanol and diluted to 37.5 µM with assay buffer (7.5 µM final assay concentration). The assay was started by the addition of 20 µL luciferase substrate to each well of the assay plate using a Multidrop^TM Combi reagent dispenser (Thermo Fisher Scientific), followed by 5 min incubation at room temperature. Then, 30 µL of agonist dilutions or DMSO control was added (final DMSO concentration 1.5%), followed by an additional 5 min incubation at room temperature. BRET² measurements were performed with a PHERAstar® FSX microplate reader (BMG LABTECH) using a BRET² filter (donor emission 370–450 nm, acceptor emission 500–530 nm) at the maximum fluorescence gain of 3600. BRET² ratios were calculated by dividing GFP emission signals from Rluc8 emission counts.

GPR55 = tested on: GPR55; set-up: method as in PMID 21534610; conditions: β-arrestin recruitment assays; read-out: reported potency; cited from earlier work
[2] = target: wt GPR55 (Gα13 mutant H368Q) (Homo sapiens, UniProt Q9Y2T6); assay: BRET² G protein dissociation assay, wt GPR55 with Gα13-H368Q; format: cell-based; conditions: for BRET2 response, Mean (plotted, Fig. S4): GPR55-wt-G13-H368Q
Description: as §1, §2

[3] = target: wt GPR55 (Gα13 mutant Q373D) (Homo sapiens, UniProt Q9Y2T6); assay: BRET² G protein dissociation assay, wt GPR55 with Gα13-Q373D; format: cell-based; conditions: for BRET2 response, Mean (plotted, Fig. S4): GPR55-wt-G13-Q373D
Description: as §1, §2

[4] = target: wt GPR55 (Gα13 mutant R331D) (Homo sapiens, UniProt Q9Y2T6); assay: BRET² G protein dissociation assay, wt GPR55 with Gα13-R331D; format: cell-based; conditions: for BRET2 response, Mean (plotted, Fig. S4): GPR55-wt-G13-R331D
Description: as §1, §2

Sequence of wt GPR55 (Gα13 mutant H368Q) (Q9Y2T6 whole entry, stated change not applied): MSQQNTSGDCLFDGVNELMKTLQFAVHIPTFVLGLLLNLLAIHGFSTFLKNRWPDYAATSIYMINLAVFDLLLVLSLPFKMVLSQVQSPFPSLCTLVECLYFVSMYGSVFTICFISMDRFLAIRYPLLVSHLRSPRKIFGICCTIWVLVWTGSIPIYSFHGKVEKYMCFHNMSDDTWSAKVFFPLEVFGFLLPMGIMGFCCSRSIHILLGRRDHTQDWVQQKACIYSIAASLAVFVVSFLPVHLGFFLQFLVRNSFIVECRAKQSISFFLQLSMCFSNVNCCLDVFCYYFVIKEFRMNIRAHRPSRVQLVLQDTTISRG
Sequence of wt GPR55 (Gα13 mutant H368Q) (Q14344 with tags, fused parts or gaps H368Q partner): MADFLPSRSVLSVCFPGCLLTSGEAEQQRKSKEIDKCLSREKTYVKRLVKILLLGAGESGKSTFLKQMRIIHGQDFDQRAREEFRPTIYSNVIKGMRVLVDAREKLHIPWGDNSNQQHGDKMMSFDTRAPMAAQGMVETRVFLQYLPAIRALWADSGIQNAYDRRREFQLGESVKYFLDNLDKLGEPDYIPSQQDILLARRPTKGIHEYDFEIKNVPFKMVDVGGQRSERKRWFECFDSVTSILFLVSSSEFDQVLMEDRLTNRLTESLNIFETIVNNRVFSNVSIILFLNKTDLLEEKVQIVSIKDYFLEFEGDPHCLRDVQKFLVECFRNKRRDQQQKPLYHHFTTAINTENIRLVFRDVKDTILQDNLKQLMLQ
Sequence of wt GPR55 (Gα13 mutant H368Q) (P16520 whole entry partner): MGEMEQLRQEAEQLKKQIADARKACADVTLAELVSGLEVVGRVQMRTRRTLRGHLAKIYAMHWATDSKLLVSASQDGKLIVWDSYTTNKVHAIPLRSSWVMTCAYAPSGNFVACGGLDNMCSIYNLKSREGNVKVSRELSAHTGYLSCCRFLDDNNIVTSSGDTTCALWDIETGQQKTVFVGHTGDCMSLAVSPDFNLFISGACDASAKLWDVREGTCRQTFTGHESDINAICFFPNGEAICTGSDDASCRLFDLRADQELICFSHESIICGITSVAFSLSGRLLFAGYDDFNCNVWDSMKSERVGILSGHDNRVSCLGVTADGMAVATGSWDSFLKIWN
Sequence of wt GPR55 (Gα13 mutant H368Q) (O14610 1-66 partner limits assumed): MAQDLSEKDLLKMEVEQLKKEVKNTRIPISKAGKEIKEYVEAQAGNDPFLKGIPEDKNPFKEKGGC
Sequence of wt GPR55 (Gα13 mutant Q373D) (Q9Y2T6 whole entry, stated change not applied): as the sequence (Q9Y2T6 whole entry, stated change not applied) above
Sequence of wt GPR55 (Gα13 mutant Q373D) (Q14344 with tags, fused parts or gaps Q373D partner): as the sequence (Q14344 with tags, fused parts or gaps H368Q partner) above, with Q368H, Q373D counted along it
Sequence of wt GPR55 (Gα13 mutant Q373D) (P16520 whole entry partner): as the sequence (P16520 whole entry partner) above
Sequence of wt GPR55 (Gα13 mutant Q373D) (O14610 1-66 partner limits assumed): as the sequence (O14610 1-66 partner limits assumed) above
Sequence of wt GPR55 (Gα13 mutant L374I) (Q9Y2T6 whole entry, stated change not applied): as the sequence (Q9Y2T6 whole entry, stated change not applied) above
Sequence of wt GPR55 (Gα13 mutant L374I) (Q14344 with tags, fused parts or gaps L374I partner): as the sequence (Q14344 with tags, fused parts or gaps H368Q partner) above, with Q368H, L374I counted along it
Sequence of wt GPR55 (Gα13 mutant L374I) (P16520 whole entry partner): as the sequence (P16520 whole entry partner) above
Sequence of wt GPR55 (Gα13 mutant L374I) (O14610 1-66 partner limits assumed): as the sequence (O14610 1-66 partner limits assumed) above
Sequence of wt GPR55 (Gα13 mutant R331D) (Q9Y2T6 whole entry, stated change not applied): as the sequence (Q9Y2T6 whole entry, stated change not applied) above
Sequence of wt GPR55 (Gα13 mutant R331D) (Q14344 whole entry R331D partner): as the sequence (Q14344 with tags, fused parts or gaps H368Q partner) above, with R331D, Q368H counted along it
Sequence of wt GPR55 (Gα13 mutant R331D) (P16520 whole entry partner): as the sequence (P16520 whole entry partner) above
Sequence of wt GPR55 (Gα13 mutant R331D) (O14610 1-66 partner limits assumed): as the sequence (O14610 1-66 partner limits assumed) above

With `Cc1cccc(N2CCN(C(=O)c3cc(S(=O)(=O)N(C)C)ccc3N3CCCC3)CC2)c1C` [ML184, 3-[[4-(2,3-dimethylphenyl)-1-piperazinyl]carbonyl]-N,N-dimethyl-4-(1-pyrrolidinyl)benzenesulfonamide] the “BRET2 response, Mean (plotted, Fig. S4)” value ([1]; concentration 300 pM) was -0.00585, the “BRET2 response, Mean (plotted, Fig. S4)” value ([1]; concentration 1e-9 M) was -0.001933 and the “BRET2 response, Mean (plotted, Fig. S4)” value ([1]; concentration 3e-9 M) was -0.00955. For the same compound, the “BRET2 response, Mean (plotted, Fig. S4)” value ([1]; concentration 1e-8 M) was -0.02387, the “BRET2 response, Mean (plotted, Fig. S4)” value ([1]; concentration 3e-8 M) was -0.04258 and the “BRET2 response, Mean (plotted, Fig. S4)” value ([1]; concentration 1e-7 M) was -0.06613. For the same compound, the “BRET2 response, Mean (plotted, Fig. S4)” value ([1]; concentration 3e-7 M) was -0.07745, the “BRET2 response, Mean (plotted, Fig. S4)” value ([1]; concentration 1e-6 M) was -0.0833 and the “BRET2 response, Mean (plotted, Fig. S4)” value ([1]; concentration 3e-6 M) was -0.08843. For the same compound, the “BRET2 response, Mean (plotted, Fig. S4)” value ([1]; concentration 1e-5 M) was -0.09448, the “BRET2 response, Mean (plotted, Fig. S4)” value ([1]; concentration 3e-5 M) was -0.09637 and the EC50 ([1]; wt GPR55, Gα13-L374I) was 36.3 nM. The Emax at 30 µM ([1]; wt GPR55, Gα13-L374I, 30 µM ligand, same normalization, read-out: Efficacy ± SEM (%)) was 84 ± 1%, the EC50 (GPR55) was 260 nM and the “BRET2 response, Mean (plotted, Fig. S4)” value ([2]; concentration 300 pM) was -0.005683. For the same compound, the “BRET2 response, Mean (plotted, Fig. S4)” value ([2]; concentration 1e-9 M) was -0.005417, the “BRET2 response, Mean (plotted, Fig. S4)” value ([2]; concentration 3e-9 M) was -0.01235 and the “BRET2 response, Mean (plotted, Fig. S4)” value ([2]; concentration 1e-8 M) was -0.02205. For the same compound, the “BRET2 response, Mean (plotted, Fig. S4)” value ([2]; concentration 3e-8 M) was -0.02877, the “BRET2 response, Mean (plotted, Fig. S4)” value ([2]; concentration 1e-7 M) was -0.03593 and the “BRET2 response, Mean (plotted, Fig. S4)” value ([2]; concentration 3e-7 M) was -0.04192. The “BRET2 response, Mean (plotted, Fig. S4)” value ([2]; concentration 1e-6 M) was -0.04487, the “BRET2 response, Mean (plotted, Fig. S4)” value ([2]; concentration 3e-6 M) was -0.0483 and the “BRET2 response, Mean (plotted, Fig. S4)” value ([2]; concentration 1e-5 M) was -0.05252. For the same compound, the “BRET2 response, Mean (plotted, Fig. S4)” value ([2]; concentration 3e-5 M) was -0.05477, the EC50 ([2]; wt GPR55, Gα13-H368Q) was 29.5 nM and the Emax at 30 µM ([2]; wt GPR55, Gα13-H368Q, 30 µM ligand, same normalization, read-out: Efficacy ± SEM (%)) was 101 ± 4%. The “BRET2 response, Mean (plotted, Fig. S4)” value ([3]; concentration 300 pM) was -0.0016, the “BRET2 response, Mean (plotted, Fig. S4)” value ([3]; concentration 1e-9 M) was -0.008467 and the “BRET2 response, Mean (plotted, Fig. S4)” value ([3]; concentration 3e-9 M) was -0.01797. For the same compound, the “BRET2 response, Mean (plotted, Fig. S4)” value ([3]; concentration 1e-8 M) was -0.03595, the “BRET2 response, Mean (plotted, Fig. S4)” value ([3]; concentration 3e-8 M) was -0.05377 and the “BRET2 response, Mean (plotted, Fig. S4)” value ([3]; concentration 1e-7 M) was -0.06678. For the same compound, the “BRET2 response, Mean (plotted, Fig. S4)” value ([3]; concentration 3e-7 M) was -0.07328, the “BRET2 response, Mean (plotted, Fig. S4)” value ([3]; concentration 1e-6 M) was -0.07808 and the “BRET2 response, Mean (plotted, Fig. S4)” value ([3]; concentration 3e-6 M) was -0.08238. For the same compound, the “BRET2 response, Mean (plotted, Fig. S4)” value ([3]; concentration 1e-5 M) was -0.08622, the “BRET2 response, Mean (plotted, Fig. S4)” value ([3]; concentration 3e-5 M) was -0.08798 and the EC50 ([3]; wt GPR55, Gα13-Q373D) was 17 nM. For the same compound, the Emax at 30 µM ([3]; wt GPR55, Gα13-Q373D, 30 µM ligand, same normalization, read-out: Efficacy ± SEM (%)) was 94 ± 7%, the “BRET2 response, Mean (plotted, Fig. S4)” value ([4]; concentration 300 pM) was -0.00035 and the “BRET2 response, Mean (plotted, Fig. S4)” value ([4]; concentration 1e-9 M) was -0.0002667. The “BRET2 response, Mean (plotted, Fig. S4)” value ([4]; concentration 3e-9 M) was -0.009133, the “BRET2 response, Mean (plotted, Fig. S4)” value ([4]; concentration 1e-8 M) was -0.02147 and the “BRET2 response, Mean (plotted, Fig. S4)” value ([4]; concentration 3e-8 M) was -0.04232. For the same compound, the “BRET2 response, Mean (plotted, Fig. S4)” value ([4]; concentration 1e-7 M) was -0.06272, the “BRET2 response, Mean (plotted, Fig. S4)” value ([4]; concentration 3e-7 M) was -0.07305 and the “BRET2 response, Mean (plotted, Fig. S4)” value ([4]; concentration 1e-6 M) was -0.07957. The “BRET2 response, Mean (plotted, Fig. S4)” value ([4]; concentration 3e-6 M) was -0.0831, the “BRET2 response, Mean (plotted, Fig. S4)” value ([4]; concentration 1e-5 M) was -0.08698 and the “BRET2 response, Mean (plotted, Fig. S4)” value ([4]; concentration 3e-5 M) was -0.08977. The EC50 ([4]; wt GPR55, Gα13-R331D) was 33.9 nM and the Emax at 30 µM ([4]; wt GPR55, Gα13-R331D, 30 µM ligand, same normalization, read-out: Efficacy ± SEM (%)) was 89 ± 3%.
